For 19 compounds, TGI and GI50 results are on record in PubChem BioAssay (NCI).

Holding throughout (assay): inhibition of tumour cell growth, NCI panel, 48 h
Test [1] relates to NCI-H522 lung.
Test [2] relates to T-47D breast.
In test [3] the test system is COLO 205 colon.
For test [4], the system named is SF-268 CNS.
The test system of test [5] is ACHN renal.
Test [6] relates to KM12 colon.
Test [7] deals with CAKI-1 renal.
Test [8] concerns BT-549 breast.
For test [9], the system named is MALME-3M melanoma.
The subject of test [10] is HT29 colon.

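A five-concentration, 48-hour dose response in 96-well plates underlies each endpoint, interpolated linearly between surrounding concentrations. GI50 = concentration required for 50% inhibition of growth. The concentration for full growth arrest is given as TGI.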

On to `CN(CC(N)=O)C(=O)N(CCCl)N=O`, for which the TGI in [1], in test [2], in test [3], in test [4], in test [5] and in test [6] was more than 100 µM each time. In addition, the TGI in test [7], in test [8], in [9] and in test [10] was more than 100 µM throughout.
For `C#CCOc1cccc(Nc2ncnc3c(NC(=O)CCl)cccc23)c1`, the GI50 is 13.6 µM in test [1]; 15.7 µM in test [2]; 18.7 µM in [3]; 15.7 µM in test [4]; 18.1 µM in test [5]; 17.4 µM in test [6]. Moreover, the GI50 was 15.8 µM in [7], 19.3 µM in test [8], 16.1 µM in test [9] and 18.6 µM in test [10]. Further, the TGI is 29.3 µM in test [1]; 39.3 µM in test [2]; 38.4 µM in [3]; 36.4 µM in [4]; 37.8 µM in [5]; 37.8 µM in test [6]. Also, the TGI in [7] turned out to be 30.7 µM; in test [8] it was 62.5 µM; in test [9] it was 35 µM; in test [10] it was 34.4 µM.
With `CCN1C(=O)N(CC)C2C1NN=c1s/c(=C3\C(=O)N(CCc4ccccc4)c4ccccc43)c(=O)n12` (stereo unspecified), the GI50 in test [1] was 0.337 µM; in [2], 1.19 µM; in test [3], 0.322 µM; in test [4], 1.95 µM; in test [5], 0.767 µM; in test [6], 0.38 µM. The GI50 is 0.65 µM in [7], 1.49 µM in test [8], 1.04 µM in [9] and 0.351 µM in test [10]. The TGI in test [1] was 3.95 µM; in test [2], more than 23.9 µM; in test [3], 1.8 µM; in test [4], 27.4 µM; in test [6], 11.2 µM; in test [7] it was 3.11 µM. Besides, the figures for the TGI in test [8], in test [9] and in [10] were 4.97 µM, 20 µM and 1.58 µM, respectively.
`O=C(O)COc1c(Cl)cc(Cl)c2cccnc12`: the TGI in test [1], in test [2], in test [3], in test [4], in [5] and in test [6] was more than 100 µM throughout. The TGI in test [7], in [8], in test [9] and in test [10] was more than 100 µM throughout.
For `CCCCn1c(=O)c2c(nc3n2CCCN3CCc2ccc(OCC(=O)NCCN(CC)CC)cc2)n(CCCC)c1=O`, the GI50 is 7.5 µM in test [1]; 4.3 µM in test [2]; 1.78 µM in test [3]; 5.16 µM in test [4]; 2.98 µM in test [5]; 6.49 µM in [6]. Also, the GI50 was 2.63 µM in [7], 2.55 µM in test [8], 0.922 µM in test [9] and 1.91 µM in test [10]. In addition, the TGI in test [1] was determined as 16.7 µM; in test [2], 13.7 µM; in test [3], 7.38 µM; in [4], 12.8 µM; in test [5], 10.6 µM; in [6], 13.5 µM. In addition, the TGI in test [7] was 9.94 µM; in test [8], 8.85 µM; in test [9] it was 1.98 µM; in test [10], 6.4 µM.
For the compound `CCCCCn1sc(=O)n(Cc2ccc(CNC(=O)OCc3ccc4cccc(O)c4n3)cc2)c1=O`, the GI50 is 1.07 µM in test [1]; 1.79 µM in test [2]; 1.59 µM in test [3]; 1.82 µM in test [4]; 1.23 µM in test [5]; 2.78 µM in test [6]. Further, the GI50 is 0.935 µM in test [7], 1.44 µM in test [8], 1.56 µM in test [9] and 1.89 µM in test [10]. The TGI in [1] stood at 2.74 µM; in test [2] it was 4.52 µM; in test [3] it was 3.75 µM; in test [4], 4.14 µM; in test [5], 2.47 µM; in [6] it was 8.91 µM. The TGI in test [7] came to 2.17 µM; in test [8], 3.65 µM; in test [9], 3 µM; in test [10], 3.35 µM.
With `N#Cc1c(N)[nH]c2ccc(Sc3ccccc3)cc12`, the TGI was found to be 3.21 µM in [1]; 23 µM in [2]; 1.34 µM in test [3]; 15.4 µM in [4]; 16 µM in [5]; 10.7 µM in test [6]. The TGI is 9.27 µM in [7], 19.5 µM in [8] and 9.01 µM in [10].
Regarding `CCN(CCO)CC(C)Nc1ccc([N+](=O)[O-])c2sc3ccccc3c(=O)c12` (stereo unspecified), the GI50 was 2.68 µM in test [2]; 1.62 µM in test [3]; 1.98 µM in test [4]; 1.01 µM in [5]; 1.47 µM in test [6]; 0.304 µM in [7]. The GI50 in test [8] is 2.1 µM; in test [9] it was 0.421 µM; in [10], 1.42 µM. For the same compound, the TGI in test [2] came to 26.8 µM; in test [3], 5.96 µM; in test [4] it was 11.5 µM; in [5], 12.1 µM; in test [6], 4 µM; in [7], 1.09 µM. Besides, the TGI in test [8] was 13.1 µM; in [9], 2.13 µM; in [10], 3.62 µM.
On to `CN1CCN(Cc2ccc(NC(=O)c3[nH]ncc3Nc3ncnc4sc5c(c34)CCCC5)cc2)CC1`, for which the GI50 in test [1] was 0.241 µM; in test [2], 0.457 µM; in [4] it was 0.438 µM; in test [5] it was 0.19 µM; in [6], 0.222 µM; in [8], 1.23 µM. In addition, the results for the GI50 in test [9] and in test [10] were 1.35 µM and 0.234 µM, respectively. The TGI came out at 1.08 µM in test [1]; 13.5 µM in [2]; 2 µM in [4]; 0.969 µM in test [5]; 1.29 µM in test [6]; 2.65 µM in test [8]. The TGI in test [9] was 2.82 µM; in test [10], 1.92 µM.
`CN1CCN(CC(O)COc2c(Br)c(Br)c(Br)c3c2OC(C)(C)C3)CC1` (stereo unspecified): the GI50 is 6.15 µM in test [1]; 12.6 µM in test [2]; 5.79 µM in [4]; 11.3 µM in test [5]; 6.06 µM in test [6]; 14.5 µM in [7]. In addition, the GI50 in test [8] was 10.6 µM; in test [10], 2.16 µM. The TGI in test [1] amounted to 28.5 µM; in test [2] it was 38.5 µM; in [4] it was 24.1 µM; in [5], 24.7 µM; in test [6] it was 43.2 µM; in test [7], 38.1 µM. Moreover, the results for the TGI in test [8] and in test [10] were 26.4 µM and 4.54 µM, respectively.
`C[C@@H]1O[C@@H](OC[C@H]2O[C@@H](OCCc3ccc(O)c(O)c3)[C@H](O)[C@@H](O)[C@@H]2OC(=O)/C=C/c2ccc(O)c(O)c2)[C@H](O)[C@H](O)[C@H]1O`: the GI50 in test [1], in test [2], in test [3], in test [4], in test [5] and in test [6] was more than 100 µM throughout. The GI50 was more than 100 µM in test [7] and 24.5 µM in test [8]. The TGI in test [1], in test [2], in [3], in test [4], in test [5] and in test [6] was more than 100 µM throughout. The TGI is more than 100 µM in [7] and 54.3 µM in [8].
With `CN(C)c1ccc(N=Nc2ccncc2)cc1`, the TGI in [2], in test [3], in test [4], in test [5], in test [6] and in test [7] was more than 100 µM each time. Also, the TGI in test [8], in test [9] and in [10] was more than 100 µM each time.
Turning to `COC(=O)c1nc(-c2ccccc2)oc1S(=O)(=O)n1nc(C)cc1N`, the GI50 in test [1] is 2.06 µM; in [2], 3.84 µM; in [3], 2.11 µM; in test [4], 18.9 µM; in test [5] it was 1.71 µM; in test [6], 16.9 µM. For the same compound, the GI50 in test [8] is 10.8 µM; in test [9], 1.78 µM; in test [10] it was 16.4 µM. Moreover, the TGI is 4.06 µM in [1]; 18.3 µM in test [2]; 3.92 µM in test [3]; 41.3 µM in test [4]; 3.11 µM in test [5]; 32.4 µM in test [6]. Further, the TGI worked out at 23.2 µM in test [8], 4.06 µM in test [9] and 36.5 µM in [10].
For the compound `CCC1(O)C(=O)OCc2c1cc1n(c2=O)Cc2cc3cc(N)ccc3nc2-1` (stereo unspecified), the TGI is 0.27 µM in [1]; more than 100 µM in test [2]; 7.25 µM in [3]; 0.0142 µM in [5]; 0.343 µM in [7]; 0.0931 µM in [8]. The TGI in test [9] stood at 1.33 µM.
In the case of `COc1cc2c(c(OC)c1OC)-c1ccc(SC)c(=O)cc1[C@@H](NC1OC(CO)C(O)C(O)C1O)CC2` (stereo partly specified), the GI50 in test [2] was more than 74.9 µM; in test [3] it was 0.0161 µM; in [4], 0.049 µM; in test [5], 0.0744 µM; in test [6], 0.024 µM; in test [7], 0.0727 µM. Further, the GI50 was 0.0679 µM in test [8], 44.8 µM in test [9] and 0.028 µM in test [10]. Moreover, the TGI in test [2] was more than 100 µM; in [3] it was 0.0412 µM; in test [4], more than 100 µM; in test [5] it was more than 100 µM; in test [7], more than 100 µM; in test [8] it was more than 100 µM. Also, the TGI in test [9] was more than 100 µM; in test [10] it was 0.0794 µM.
Consider `COC1O[C@@H]2C[C@H]3C(C)(C)CCC[C@]3(C)C3=CCCC1[C@@]32C` (stereo partly specified), for which the GI50 in test [1], in [2], in test [3], in test [4], in test [5] and in [6] was more than 100 µM throughout. Also, the GI50 in test [8], in test [9] and in [10] was more than 100 µM each time. Also, the TGI in test [1], in [2], in test [3], in test [4], in test [5] and in test [6] was more than 100 µM in each case. Moreover, the TGI in test [8], in test [9] and in test [10] was more than 100 µM throughout.
For the compound `COc1ccc(-c2cc(=O)c3c(OC)c(OC)c(OC)c(OC)c3o2)cc1`, the TGI was 66.5 µM in test [1]; 59.5 µM in test [2]; more than 100 µM in [3]; more than 100 µM in test [4]; more than 100 µM in test [5]; more than 100 µM in test [7]. Moreover, the TGI in test [8], in test [9] and in test [10] was more than 100 µM each time.
Take `Cc1cccc(NC(=O)c2sc3nc4c(cc3c2N)CN(Cc2ccccc2)CC4)c1C`: the GI50 in test [1] is 0.138 µM; in [2], 0.226 µM; in [3] it was 0.274 µM; in [4], 0.387 µM; in test [5] it was 0.409 µM; in test [6] it was 0.193 µM. Moreover, the GI50 in test [8] was 0.304 µM; in test [9] it was 0.239 µM; in test [10] it was 0.147 µM. Besides, the TGI in test [1], in test [2], in test [3], in [4], in test [5] and in [6] was more than 50 µM throughout. Further, the TGI in test [8] was more than 50 µM; in test [9], more than 50 µM; in test [10] it was 1.6 µM.
For the compound `O=[N+]([O-])c1cc(S(=O)(=O)Oc2ccccc2)ccc1Cl`, the GI50 in test [1] is 1.99 µM; in test [2] it was 2.21 µM; in [3], 3.85 µM; in test [4], 1.83 µM; in test [5], 3.22 µM; in [6], 1.47 µM. Besides, the GI50 is 1.53 µM in test [7] and 5.43 µM in [8]. The TGI in test [1] amounted to 3.62 µM; in test [2] it was 5.38 µM; in test [3], 14.4 µM; in test [4], 3.4 µM; in test [5] it was 9.05 µM; in test [6] it was 2.89 µM. For the same compound, the TGI in test [7] turned out to be 2.89 µM; in [8], 17 µM.
